Test results reported in PubChem BioAssay AID651892 (Broad Institute, 2012).
Activity calls are given as the source filed them.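 The calls were made as follows: active = IC50 below three times the IC50 of the reference antileishmanial control drug; inactive = the rest.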

Tested on: L. donovani axenic amastigotes, Alamar Blue fluorescence, 72 h
Experiment: L. donovani amastigote growth inhibition, dose response, axenic amastigotes, plate reader, dry powder (AID 651892)

C[C@@H]1CN([C@@H](C)CO)C(=O)c2cccc(NC(=O)c3ccncc3)c2O[C@H]1CN(C)Cc1ccc(Oc2ccccc2)cc1
IC50: 40.5 µM (inactive)
